Values of other authors as cited in US20230226058A1, “METHODS AND COMPOSITIONS FOR TREATING ACUTE KIDNEY INJURY” (CalciMedica, Inc., priority 2020, published 2023).

Tested on: AKI rats

In the case of Cc1nnsc1C(=O)Nc1ccc(-n2nc(C(F)(F)F)cc2C(F)(F)F)cc1 [YM58483/BPT2], the “infiltration of total CD4+ T-cells, B-cells, and dendritic cells following I/R” value (AKI rats) is given as “attenuated” and the “Total IL17 expressing cells” value (treated rats relative to vehicle treated rats) is given as “reduced”.
